{"source": "patent US12122833B2", "about": "“Combination therapies of HDAC inhibitors and PD-1 inhibitors” (HUYABIO International, LLC, priority 2016, dated 2024)", "key": {"HDAC 2": {"molecular_target": "HDAC 2 (Homo sapiens, UniProt Q92769)", "sequence (Q92769 whole entry)": "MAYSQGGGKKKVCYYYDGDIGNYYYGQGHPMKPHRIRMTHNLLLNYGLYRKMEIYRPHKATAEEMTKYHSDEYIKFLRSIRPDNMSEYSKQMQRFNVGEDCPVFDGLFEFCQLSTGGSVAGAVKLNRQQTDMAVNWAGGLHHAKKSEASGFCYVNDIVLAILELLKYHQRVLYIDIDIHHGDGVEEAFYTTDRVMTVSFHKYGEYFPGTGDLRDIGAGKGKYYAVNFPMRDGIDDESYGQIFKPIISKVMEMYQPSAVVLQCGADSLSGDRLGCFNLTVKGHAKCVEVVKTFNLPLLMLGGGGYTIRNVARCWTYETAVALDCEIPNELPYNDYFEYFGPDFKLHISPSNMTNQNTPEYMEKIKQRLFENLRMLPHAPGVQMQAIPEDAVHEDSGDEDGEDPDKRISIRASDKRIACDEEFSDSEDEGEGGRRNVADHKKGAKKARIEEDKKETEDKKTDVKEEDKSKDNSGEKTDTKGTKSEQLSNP", "conditions": "reported by Ning et al.; cited from earlier work"}, "[1]": {"tested_on": "MC38 murine colon carcinoma cells", "test": "Example 1: tumor growth delay, MC38 murine colon carcinoma in C57BL/6 mice", "format": "in vivo, mouse", "conditions": "for Median TTE: endpoint 1000 mm^3 or Day 47, n=10; for % TGD: vs vehicle", "method": "In the present example, HBI-8000 was tested as monotherapy and in combination with anti-PD-1 at 5 mg/kg. The experiment included a vehicle-treated group, and a PD-1 inhibitor antibody monotherapy group, which served as the control groups for analysis of efficacy. Tumors were measured twice per week until the study was ended on Day 47. Each animal was euthanized when its tumor attained the endpoint tumor volume of 1000 mm^3 or on the final day of the study, whichever came first, and the time to endpoint (TTE) for each mouse was calculated. Treatment response was determined from an analysis of percent tumor growth delay (% TGD), defined as the percent increase in the median time to endpoint (TTE) for treated versus control mice; and by log rank significance of differences in survival among groups and regression responses.\nMice: Female C57BL/6 mice (Charles River Laboratories) were eight weeks old, with a body weight (BW) range of 15.4 to 22.0 grams on Day 1 of the study. The animals were fed ad libitum water (reverse osmosis, 1 ppm Cl), and NIH 31 Modified and Irradiated Lab Diet® consisting of 18.0% crude protein, 5.0% crude fat, and 5.0% crude fiber. The mice were housed on irradiated Enrich-o'Cobs™ Laboratory Animal Bedding in static microisolators on a 12-hour light cycle at 20-22° C. (68-72° F.) and 40-60% humidity.\nTumor Cells: MC38 murine colon carcinoma cells were maintained in Dulbecco's Modified Eagle Medium (DMEM) supplemented with 10% fetal bovine serum and 2 mM glutamine, 100 units/mL penicillin G sodium, […] streptomycin sulfate, and 25 μg/mL gentamicin. Cell cultures were maintained in tissue culture flasks in a humidified incubator at 37° C., in an atmosphere of 5% CO2 and 95% air.\nTumor Implantation: Cells were harvested during exponential growth, and resuspended in cold DMEM. Each mouse was inoculated subcutaneously in the right flank with 1×10^6 cells (0.1 mL of cell suspension). Tumors were calipered in two dimensions to monitor growth as their mean volume approached the desired 100-150 mm^3 range. Tumor burden was calculated using the formula:\n[formula] where w=width and l=length, in mm, of the tumor. Tumor weight may be estimated with the assumption that 1 mg is equivalent to 1 mm^3 of tumor volume. Fourteen days after tumor implantation, which was designated as Day 1 of the study, animals with individual tumor volumes from 75 to 221 mm^3 were sorted into eleven groups (n=10/group) with group mean tumor volume of 130-133 mm^3. […]\nTumor Growth Delay: Tumors were measured using calipers twice per week, and each animal was euthanized when its tumor reached a volume of 1000 mm^3 or at the end of the study (D47), whichever came first. […] The time to endpoint (TTE) for analysis was calculated for each mouse by the following equation: […]"}, "[2]": {"conditions": "oral administration; cited from earlier work"}, "[3]": {"conditions": "HBI-8000 20 mg/kg p.o. qd×21, alone or plus anti-PD-1 5 mg/kg i.p. biwk×3"}, "[4]": {"conditions": "HBI-8000 50 mg/kg p.o. qd×21, alone or plus anti-PD-1 5 mg/kg i.p. biwk×3"}}}
{"smiles": "Nc1cc(F)ccc1NC(=O)c1ccc(CNC(=O)/C=C/c2cccnc2)cc1", "note": "[HBI-8000, N-(2-amino-4-fluorophenyl)-4-[[[(2E)-1-oxo-3-(3-pyridinyl)-2-propen-1-yl]amino]methyl]benz amide]", "values": [{"measurement": "activity at HDAC 2 compared with Entinostat", "setting": "HDAC 2", "result": "more active than Entinostat"}, {"measurement": "inhibition of HDAC 2", "setting": "HDAC 2", "result": "low nanomolar concentrations"}, {"measurement": "Median TTE", "setting": "[1]; [3]", "result": 18.9, "unit": "days"}, {"measurement": "% TGD", "setting": "[1]; [3]", "result": "−8", "unit": "%"}, {"measurement": "Median TTE", "setting": "[1]; [4]", "result": 22.8, "unit": "days"}, {"measurement": "% TGD", "setting": "[1]; [4]", "result": 11, "unit": "%"}, {"measurement": "t1/2", "setting": "[2]", "result": "about 17 hours"}]}
